Experimental findings from patent US12465610B2, “Compounds and methods for the treatment of PKR-associated diseases” (Board of Regents, The University of Texas System, priority 2019, dated 2025) are described below.

One experiment has as its system LOVO colon cancer cells. Description: SRB cell viability assay. Type of experiment: cell-based, human. As to conditions: 72 hours after treatment. The text has this: PKR and PI4K2A expression are associated with poor prognosis in cancer patients: PKR and PI4K2A are encoded by the EIF2AK2 and PI4K2A genes, respectively. […] It was also examined the expression of PKR using immunohistochemical staining of five normal skin and five breast tumor samples and observed that all of the breast tumor cells had high cytoplasmic PKR expression (FIG. 7C). However, all of the normal skin cells had low cytoplasmic PKR expression, and some of them had high nuclear PKR expression. […] Furthermore, the association between EIF2AK2 or PI4K2A gene expression and overall survival was evaluated in colorectal cancer patients using the TCGA data set. […]
Cell viability assays: For SRB assays, cells (2-8×10^3/well in 100 μL of culture medium) were seeded in 96-well flat-bottomed plates and treated the next day with compounds at the indicated concentrations. […] The protein was stained with SRB, and the optical density at 570 nm was determined. Relative cell viability was calculated by setting the viability rate of the control cells (exposed only to dimethyl sulfoxide) at 100% and comparing the viability of the treated cells with that of the controls. […] The viability of leukemia cell lines was determined by using a 3-(4,5-dimethylthiazol-2-yl)-2,5-diphenyltetrazolium bromide assay. […]

The next experiment has as its target PI4KIIIa (Homo sapiens, UniProt P42356). Put plainly: ADP-Glo kinase assay, high-throughput enzymatic screening (Reaction Biology). Type of experiment: biochemical.
The next experiment relates to HeLa cells. Put plainly: Microscopic analysis of morphologic changes. Type of experiment: cell-based, human. The source says:
Anticancer effects of PKR-targeting compounds depend on PKR expression status: To identify compounds that can target lysosomes in PKR-positive cells or MVBs/exosomes in PKR-negative cells, the 10,000-compound ChemBridge library was screened for compounds with different effects on the growth of HeLa and HeLaPKRkd cells. […] SRB assays were next used to determine cell viability after treatment with Pac 1 or Pac 2.
Identification of PKR-associated compounds and cytotoxicity studies: The library of 10,000 compounds was screened for those with different effects on the growth of HeLa and HeLaPKRkd cells. For this screening, both HeLa and HeLaPKRkd cells were seeded in 96-well plates in parallel and treated with each compound at a final concentration of 5 μg/mL. Cells treated with dimethyl sulfoxide (final concentration, 1%) were used as controls. Treated cells were observed under a microscope to detect morphologic changes, and their viability was determined using SRB assays 2 and 3 days after treatment. The compounds initially observed to have different effects on HeLa and HeLaPKRkd cells were subjected to two confirmatory screenings.

In the next experiment the target is PI3Kb (Homo sapiens, UniProt P42338). Put plainly: ADP-Glo kinase assay, high-throughput enzymatic screening (Reaction Biology). Type of experiment: biochemical.
Chain of PI3Kb (P42338 whole entry): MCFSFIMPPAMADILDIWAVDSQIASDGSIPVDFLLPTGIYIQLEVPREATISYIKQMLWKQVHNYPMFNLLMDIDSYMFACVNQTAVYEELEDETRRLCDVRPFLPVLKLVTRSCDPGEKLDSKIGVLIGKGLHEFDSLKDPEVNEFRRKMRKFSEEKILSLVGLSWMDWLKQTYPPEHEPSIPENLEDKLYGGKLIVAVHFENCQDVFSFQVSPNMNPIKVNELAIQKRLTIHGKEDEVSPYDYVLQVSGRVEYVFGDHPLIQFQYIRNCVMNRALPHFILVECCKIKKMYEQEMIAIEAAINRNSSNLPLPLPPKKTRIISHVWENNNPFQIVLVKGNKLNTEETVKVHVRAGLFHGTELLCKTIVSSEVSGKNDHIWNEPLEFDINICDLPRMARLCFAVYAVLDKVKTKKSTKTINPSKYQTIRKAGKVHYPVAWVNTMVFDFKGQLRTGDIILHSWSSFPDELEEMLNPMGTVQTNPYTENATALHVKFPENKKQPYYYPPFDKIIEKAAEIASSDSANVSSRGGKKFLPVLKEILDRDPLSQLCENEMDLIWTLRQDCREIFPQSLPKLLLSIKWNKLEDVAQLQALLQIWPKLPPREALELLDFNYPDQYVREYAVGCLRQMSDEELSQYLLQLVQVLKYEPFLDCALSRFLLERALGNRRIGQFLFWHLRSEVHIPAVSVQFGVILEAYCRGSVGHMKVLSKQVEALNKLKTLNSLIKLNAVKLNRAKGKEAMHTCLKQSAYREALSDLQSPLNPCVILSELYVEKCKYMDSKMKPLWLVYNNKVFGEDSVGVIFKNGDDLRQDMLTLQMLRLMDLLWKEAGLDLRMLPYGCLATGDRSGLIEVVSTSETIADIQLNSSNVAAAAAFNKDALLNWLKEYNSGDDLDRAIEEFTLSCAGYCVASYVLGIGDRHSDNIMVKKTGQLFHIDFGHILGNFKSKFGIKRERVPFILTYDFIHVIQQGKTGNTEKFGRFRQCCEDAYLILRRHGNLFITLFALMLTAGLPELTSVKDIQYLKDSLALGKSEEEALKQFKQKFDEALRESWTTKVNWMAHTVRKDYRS
Chain of PI3Kb (P27986 whole entry partner): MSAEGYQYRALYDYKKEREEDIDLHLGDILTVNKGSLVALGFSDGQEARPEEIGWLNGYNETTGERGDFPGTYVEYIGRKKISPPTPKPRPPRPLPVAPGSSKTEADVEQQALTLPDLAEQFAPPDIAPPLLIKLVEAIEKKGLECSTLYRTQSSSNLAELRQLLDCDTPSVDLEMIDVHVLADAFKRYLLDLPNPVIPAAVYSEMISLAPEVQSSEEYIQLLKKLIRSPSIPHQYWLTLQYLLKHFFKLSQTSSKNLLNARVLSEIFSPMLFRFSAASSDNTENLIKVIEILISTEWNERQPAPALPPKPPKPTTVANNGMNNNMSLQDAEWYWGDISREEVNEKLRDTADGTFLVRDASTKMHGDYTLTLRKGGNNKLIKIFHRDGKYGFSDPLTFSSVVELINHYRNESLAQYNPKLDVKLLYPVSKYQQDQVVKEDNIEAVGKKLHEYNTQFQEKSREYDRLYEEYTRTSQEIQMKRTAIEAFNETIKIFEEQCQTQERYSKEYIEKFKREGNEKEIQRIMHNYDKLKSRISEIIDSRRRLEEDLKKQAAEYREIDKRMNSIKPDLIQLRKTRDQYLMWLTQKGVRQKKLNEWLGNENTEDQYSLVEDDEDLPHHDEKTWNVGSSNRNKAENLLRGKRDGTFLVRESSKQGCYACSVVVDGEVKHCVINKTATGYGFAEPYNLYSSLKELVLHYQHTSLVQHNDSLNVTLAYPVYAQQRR
Experiment [1] relates to MDA-MB-231 tumor xenografts. Description: Tumor xenograft growth in mice. Type of experiment: in vivo. As to conditions: intravenous injection, over 4 weeks. As for the experimental part: (§1) The effects of Pac 1 and Pac 2 were next examined on PKR protein expression in HeLa cells using Western blot analysis. […] No reduction in normal cell viability was observed after treatment with Pac 1 or Pac 2 (FIGS. 5F and G). […] Because most of the cancer cell lines that were tested were more sensitive to Pac 1 than to Pac 2, Pac 1 was further investigated.
(§2) Analysis of in vivo tumor growth after treatment with Pac 1: For in vivo tumor studies, MDA-MB-231 or H1299 cells (˜1×10^6) were resuspended in 0.1 mL of PBS and injected subcutaneously into the flanks of female severe combined immunodeficiency mice. When the resulting tumors reached 100-150 mm^3 in volume, the mice were stratified into groups of eight animals, with each group having approximately equal mean tumor volumes, and administered intravenous injection of Pac 1. The animals were weighed weekly, and their tumor diameters were measured twice weekly. When a tumor reached 2000 mm^3 or became necrotic, the animal was killed.

In the next experiment the test system is H1299 tumor xenografts. Description: Tumor xenograft growth in mice. Type of experiment: in vivo. Here is the method:
as §1, §2

Another experiment deals with PI4KIIb (Homo sapiens, UniProt Q8TCG2). Description: ADP-Glo kinase assay, high-throughput enzymatic screening (Reaction Biology). Type of experiment: biochemical.
For experiment [2], the target named is PKR coimmunoprecipitated with PI4K2A (Homo sapiens, UniProt Q9BTU6). Type of experiment: cell-based.
A further experiment deals with PIM1 (Homo sapiens, UniProt P11309). Put plainly: High-throughput enzymatic screening. Type of experiment: biochemical.
The next experiment relates to AP-1/2/3 complexes. Put plainly: Western blot of AP-1, AP-2 and AP-3 complex-associated proteins. Type of experiment: cell-based, human. As to conditions: H1299 and MDA-MB-231 cells. The source says:
(§3) Western blotting was next used to evaluate proteins known to be involved in AP-1/2/3 complexes in lung (H1299) and breast (MDA-MB-231) cancer cells after treatment with Pac 1 or Pac 2. […] AP-1 and AP-2 mediate protein sorting in the endosome, trans-Golgi network, and plasma membrane. […] The impact of Pac 1 was then investigated on lysosome function by staining cells with the acidophilic dye LysoTracker Red.
Background: Immunoblotting shows a protein as a band on a membrane.

In experiment [3] the test system is acidic vesicular organelles (lysosomes). Description: LysoTracker Red staining. Type of experiment: cell-based, human. As to conditions: HeLa, H1299, and MDA-MB-231 cells, 5 μM, 72 hours.
Excerpt: as §3
LysoTracker red staining, confocal microscopy, and tem: The acidophilic dye LysoTracker Red stains lysosomes. Cancer cells (1×10^5 cells/well) were grown on two-well chamber slides (Becton Dickinson Labware, Bedford, MA) to 70% confluence and then treated with PKR siRNA or control siRNA. Forty-eight hours later (when cells had grown to 70-80% confluence), the medium was replaced with medium containing 75 nM LysoTracker Red. The cells were incubated with LysoTracker Red for 1 hour and then rinsed one time with 1 mL of PBS. The cells were kept in PBS for microscopic imaging.

The test system of a further experiment is p-4EBP1 (T70), PP2A. Description: Western blot of p-4EBP1 and p-PP2Ac. Type of experiment: cell-based, human. As to conditions: H1299 and A549 cells.
The target of another experiment is PI3 Kg (Homo sapiens, UniProt P48736). Put plainly: ADP-Glo kinase assay, high-throughput enzymatic screening (Reaction Biology). Type of experiment: biochemical. On the technique in general: In ADP-Glo the light output rises with the ADP produced.
Chain of PI3 Kg (P48736 whole entry): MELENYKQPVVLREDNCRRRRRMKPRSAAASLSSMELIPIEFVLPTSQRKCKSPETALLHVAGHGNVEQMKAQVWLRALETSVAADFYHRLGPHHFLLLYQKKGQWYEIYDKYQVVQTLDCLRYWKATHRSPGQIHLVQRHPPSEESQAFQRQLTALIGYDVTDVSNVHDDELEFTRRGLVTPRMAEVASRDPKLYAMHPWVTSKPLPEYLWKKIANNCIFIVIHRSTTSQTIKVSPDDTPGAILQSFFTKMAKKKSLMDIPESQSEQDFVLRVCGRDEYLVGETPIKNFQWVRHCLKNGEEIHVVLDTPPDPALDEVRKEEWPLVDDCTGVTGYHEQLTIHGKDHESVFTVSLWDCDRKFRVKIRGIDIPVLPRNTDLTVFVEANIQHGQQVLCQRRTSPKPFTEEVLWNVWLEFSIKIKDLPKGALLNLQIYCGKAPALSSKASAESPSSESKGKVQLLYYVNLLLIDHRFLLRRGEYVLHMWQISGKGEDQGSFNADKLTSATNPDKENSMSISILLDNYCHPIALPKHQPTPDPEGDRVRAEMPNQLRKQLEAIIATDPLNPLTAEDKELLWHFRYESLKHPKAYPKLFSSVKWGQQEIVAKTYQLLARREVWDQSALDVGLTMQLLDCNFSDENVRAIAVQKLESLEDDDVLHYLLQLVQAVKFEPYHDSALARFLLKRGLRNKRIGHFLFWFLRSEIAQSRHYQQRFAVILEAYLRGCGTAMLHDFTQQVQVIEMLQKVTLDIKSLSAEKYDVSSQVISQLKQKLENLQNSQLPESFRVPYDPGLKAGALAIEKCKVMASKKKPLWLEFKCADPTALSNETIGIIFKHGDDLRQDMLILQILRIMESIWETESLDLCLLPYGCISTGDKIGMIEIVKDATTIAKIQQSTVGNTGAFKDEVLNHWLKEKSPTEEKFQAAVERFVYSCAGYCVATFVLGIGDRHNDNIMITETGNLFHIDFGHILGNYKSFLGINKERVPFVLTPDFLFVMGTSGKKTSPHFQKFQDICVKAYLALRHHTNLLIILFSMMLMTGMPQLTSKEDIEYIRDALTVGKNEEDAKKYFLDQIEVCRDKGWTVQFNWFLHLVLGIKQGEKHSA

Chain of PI4KIIIa (P42356 whole entry): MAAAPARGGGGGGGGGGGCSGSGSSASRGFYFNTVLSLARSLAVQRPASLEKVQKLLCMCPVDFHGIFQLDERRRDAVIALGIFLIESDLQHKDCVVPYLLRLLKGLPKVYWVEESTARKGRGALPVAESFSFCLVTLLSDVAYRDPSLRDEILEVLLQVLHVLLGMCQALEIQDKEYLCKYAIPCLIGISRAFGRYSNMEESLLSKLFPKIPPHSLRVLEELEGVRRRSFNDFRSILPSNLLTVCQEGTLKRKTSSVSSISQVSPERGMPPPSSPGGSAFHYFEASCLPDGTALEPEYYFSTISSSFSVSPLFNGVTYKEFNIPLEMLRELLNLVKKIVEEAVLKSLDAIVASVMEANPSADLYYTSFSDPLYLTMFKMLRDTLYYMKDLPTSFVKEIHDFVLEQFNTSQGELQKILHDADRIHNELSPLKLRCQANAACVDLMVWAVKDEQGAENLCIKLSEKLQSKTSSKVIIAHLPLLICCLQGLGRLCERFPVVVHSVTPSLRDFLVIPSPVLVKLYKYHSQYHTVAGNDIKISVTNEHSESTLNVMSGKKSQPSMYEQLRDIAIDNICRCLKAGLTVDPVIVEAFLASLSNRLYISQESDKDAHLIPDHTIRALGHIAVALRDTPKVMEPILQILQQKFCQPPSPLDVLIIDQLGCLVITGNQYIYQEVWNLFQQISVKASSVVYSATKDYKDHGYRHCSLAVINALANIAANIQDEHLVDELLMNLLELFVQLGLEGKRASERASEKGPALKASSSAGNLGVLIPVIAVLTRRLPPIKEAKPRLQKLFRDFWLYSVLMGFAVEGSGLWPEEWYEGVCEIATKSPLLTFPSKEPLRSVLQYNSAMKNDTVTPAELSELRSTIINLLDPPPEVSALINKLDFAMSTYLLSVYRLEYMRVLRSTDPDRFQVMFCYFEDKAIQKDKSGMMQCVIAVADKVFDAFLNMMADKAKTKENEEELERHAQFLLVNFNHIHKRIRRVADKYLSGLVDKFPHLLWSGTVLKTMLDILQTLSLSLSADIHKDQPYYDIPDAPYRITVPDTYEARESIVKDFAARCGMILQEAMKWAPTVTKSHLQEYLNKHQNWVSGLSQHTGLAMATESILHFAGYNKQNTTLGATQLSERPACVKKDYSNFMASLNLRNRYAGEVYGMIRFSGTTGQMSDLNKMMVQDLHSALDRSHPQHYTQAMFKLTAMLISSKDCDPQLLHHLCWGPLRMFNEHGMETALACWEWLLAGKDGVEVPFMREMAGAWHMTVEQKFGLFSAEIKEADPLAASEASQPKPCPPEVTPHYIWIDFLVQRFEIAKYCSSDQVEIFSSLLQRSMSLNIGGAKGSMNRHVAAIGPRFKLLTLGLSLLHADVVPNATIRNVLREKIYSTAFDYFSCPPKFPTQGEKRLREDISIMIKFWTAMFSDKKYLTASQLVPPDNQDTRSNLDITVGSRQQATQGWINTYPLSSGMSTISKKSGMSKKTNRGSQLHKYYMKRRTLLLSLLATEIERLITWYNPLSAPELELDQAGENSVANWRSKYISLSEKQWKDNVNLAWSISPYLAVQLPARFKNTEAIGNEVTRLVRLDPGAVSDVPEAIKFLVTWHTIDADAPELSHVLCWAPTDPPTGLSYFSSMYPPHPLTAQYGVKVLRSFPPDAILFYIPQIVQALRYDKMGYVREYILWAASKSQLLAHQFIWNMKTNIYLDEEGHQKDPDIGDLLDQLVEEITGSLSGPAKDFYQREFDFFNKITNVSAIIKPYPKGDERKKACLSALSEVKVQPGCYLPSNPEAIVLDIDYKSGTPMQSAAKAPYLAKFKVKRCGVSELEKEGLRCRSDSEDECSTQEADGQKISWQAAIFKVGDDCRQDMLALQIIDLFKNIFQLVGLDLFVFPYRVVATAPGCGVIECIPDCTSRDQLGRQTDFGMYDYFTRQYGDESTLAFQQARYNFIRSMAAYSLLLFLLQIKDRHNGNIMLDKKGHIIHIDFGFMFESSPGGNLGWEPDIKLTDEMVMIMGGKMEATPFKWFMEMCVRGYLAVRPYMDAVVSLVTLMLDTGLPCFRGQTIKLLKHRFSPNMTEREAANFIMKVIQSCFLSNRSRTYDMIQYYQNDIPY

For `O=C(N/N=C\c1c(O)ccc2ccccc12)c1cccc2cc[nH]c12` [Pac 1, N′—[(Z)-(2-Hydroxy-1-naphthyl)methylene]-1H-indole-7-carbohydrazide], in the experiment with LOVO colon cancer cells, the “growth of LOVO colon cancer cells” value was “inhibited the growth”. Moreover, the “inhibition of kinase activity” value against PI4KIIIa, at PI3Kb, on PI4KIIb and on PI3 Kg was “not other kinases” each time. Besides, in the experiment with HeLa cells, the “growth of HeLa cells by microscopy” value is on record as “suppressed the growth of HeLa cells more effectively than did treatment with Pac 2”. In addition, the “growth of MDA-MB-231 tumor xenografts” value in experiment [1] is “inhibited the growth”. In addition, in the experiment on H1299 tumor xenografts (H1299 tumors, immunohistochemical analysis), the “expression of PKR, p-PKR, and Ki-67 protein in tumors” value is reported as “dramatically suppressed”. Further, the “growth of H1299 tumor xenografts” value in the experiment on H1299 tumor xenografts (intravenous injection, over 4 weeks) is listed as “inhibited the growth”. In addition, in experiment [2], the “amount of PKR coimmunoprecipitated with PI4K2A” value is on record as “decreased to undetectable levels”. Further, the “inhibition of PIM3/1 activity” value on PIM1 is “markedly inhibited”. Moreover, in the experiment on AP-1/2/3 complexes (5 μM, 72 hours), the “PI4K2A, Lamp1, Lamp2, and AP-3δ expression” value is “significantly inhibited”. For the same compound, the “expression of proteins associated with AP-1 (Rab7α, HSC70, AP-1γ) or AP-2 (AP-2α)” value in the experiment on AP-1/2/3 complexes (72 hours after treatment) is given as “No reduction of expression”. Besides, the “numbers of acidic vesicular organelles” value in experiment [3] was “substantially decreased”. Also, in the experiment on p-4EBP1 (T70), PP2A, the “PP2A activity, indicated by dissociation of the p-PP2Ac complex” value was “Inactivation of PP2A was observed”. Besides, the “expression of p-4EBP1 (T70) protein” value in the experiment with p-4EBP1 (T70), PP2A (72 hours after treatment) is listed as “reduction of expression”.
